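Assay format: 96-well plates, 48-hour exposure. GI50: concentration for 50% inhibition of growth.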 Activity calls are given as the source filed them. Rule as the data show it: active = GI50 up to about 1.1 µM and inactive = higher.
Legend:
Test in all cases: NCI-60 cell line screen, 48 h
[1] = system: TK-10
[2] = system: CCRF-CEM
[3] = system: HOP-92
[4] = system: CAKI-1
[5] = system: SW-620
[6] = system: SF-295
[7] = system: Hs-578T
[8] = system: SNB-75
[9] = system: HCT-116
[10] = system: RPMI-8226
[11] = system: UACC-62
[12] = system: OVCAR-3
[13] = system: IGROV-1
[14] = system: SK-OV-3
[15] = system: EKVX
[16] = system: MDA-MB-231
[17] = system: NCI-H460

SMILES | GI50 [1] | GI50 [2] | GI50 [3] | GI50 [4] | GI50 [5] | GI50 [6] | GI50 [7] | GI50 [8] | GI50 [9] | GI50 [10] | GI50 [11] | GI50 [12] | GI50 [13] | GI50 [14] | GI50 [15] | GI50 [16] | GI50 [17]
CC1(C)CN=C(Nc2ccc(F)c(Cl)c2)S1 | > 100 µM (inactive) | > 100 µM (inactive) | > 100 µM (inactive) | > 100 µM (inactive) | > 100 µM (inactive) | > 100 µM (inactive) | > 100 µM (inactive) | > 100 µM (inactive) | > 100 µM (inactive) | > 100 µM (inactive) | > 100 µM (inactive) | > 100 µM (inactive) | > 100 µM (inactive) | > 100 µM (inactive) | > 100 µM (inactive) | – | –
CCN(CC)/C(Sc1ccccc1)=C(\C(Cl)=C(Cl)Cl)[N+](=O)[O-] | 16.9 µM (inactive) | 4.99 µM (inactive) | 14.2 µM (inactive) | 13 µM (inactive) | 17.9 µM (inactive) | 17.6 µM (inactive) | 20.7 µM (inactive) | 20.4 µM (inactive) | 16.4 µM (inactive) | – | 14.6 µM (inactive) | 16.4 µM (inactive) | 16 µM (inactive) | 33.4 µM (inactive) | 15.6 µM (inactive) | 24.2 µM (inactive) | 21.7 µM (inactive)
C=CC(O)C#Cc1cnc(OC)nc1OC (configuration not stated) | > 100 µM (inactive) | 17.1 µM (inactive) | > 100 µM (inactive) | 35.1 µM (inactive) | 75.9 µM (inactive) | > 100 µM (inactive) | > 100 µM (inactive) | 65.8 µM (inactive) | 82.8 µM (inactive) | – | > 100 µM (inactive) | > 100 µM (inactive) | > 100 µM (inactive) | – | > 100 µM (inactive) | > 100 µM (inactive) | > 100 µM (inactive)
CO/N=C(/C)c1cccc(Nc2nc3ccccc3c3[nH]c4ccccc4c23)c1 | – | – | – | 10.5 µM (inactive) | 10.1 µM (inactive) | 3.5 µM (inactive) | 13.8 µM (inactive) | 0.302 µM (active) | 3.16 µM (inactive) | – | 6.03 µM (inactive) | 5.7 µM (inactive) | 13.5 µM (inactive) | 17.1 µM (inactive) | – | 12.1 µM (inactive) | 2.52 µM (inactive)
O=S(=O)(O)c1ccccc1/N=N\c1ccc(/N=N/c2c(O)ccc3ccccc23)c(S(=O)(=O)O)c1 | > 100 µM (inactive) | 83.6 µM (inactive) | > 100 µM (inactive) | > 100 µM (inactive) | > 100 µM (inactive) | > 100 µM (inactive) | > 100 µM (inactive) | > 100 µM (inactive) | > 100 µM (inactive) | > 100 µM (inactive) | > 100 µM (inactive) | > 100 µM (inactive) | > 100 µM (inactive) | > 100 µM (inactive) | > 100 µM (inactive) | > 100 µM (inactive) | –
CN(C)c1ccc(/C=C2\C[C@H]3[C@@H]4CC=C5C[C@@H](O)CC[C@]5(C)[C@H]4CC[C@]3(C)C2=O)cc1 | 20.3 µM (inactive) | – | – | – | 30.2 µM (inactive) | 25.6 µM (inactive) | – | 23.2 µM (inactive) | 29.2 µM (inactive) | 66.8 µM (inactive) | 17.4 µM (inactive) | 24.8 µM (inactive) | 18 µM (inactive) | 25.8 µM (inactive) | 23.6 µM (inactive) | 18 µM (inactive) | 15.8 µM (inactive)
CC(=O)NNC(=S)N/C=C1/C(=O)C=C(C)OC1=O | > 100 µM (inactive) | – | > 100 µM (inactive) | > 100 µM (inactive) | > 100 µM (inactive) | > 100 µM (inactive) | – | > 100 µM (inactive) | > 100 µM (inactive) | – | – | > 100 µM (inactive) | > 100 µM (inactive) | > 100 µM (inactive) | > 100 µM (inactive) | > 100 µM (inactive) | > 100 µM (inactive)
CC1CCC2CC1NC(=O)CCOCCC(=O)NC2(C)C (configuration not stated) | > 100 µM (inactive) | > 100 µM (inactive) | > 100 µM (inactive) | – | > 100 µM (inactive) | > 100 µM (inactive) | – | > 100 µM (inactive) | > 100 µM (inactive) | – | > 100 µM (inactive) | > 100 µM (inactive) | > 100 µM (inactive) | > 100 µM (inactive) | > 100 µM (inactive) | > 100 µM (inactive) | > 100 µM (inactive)
COc1ccc(N2C(=O)C3c4[nH]c5ccc(C)cc5c4C4CCC(C)CC4C3C2=O)cc1 (configuration not stated) | 34.4 µM (inactive) | 18.5 µM (inactive) | 76.2 µM (inactive) | > 100 µM (inactive) | > 100 µM (inactive) | 27.1 µM (inactive) | 4.65 µM (inactive) | – | 36.5 µM (inactive) | > 100 µM (inactive) | 52.7 µM (inactive) | 58.1 µM (inactive) | > 100 µM (inactive) | 25.3 µM (inactive) | > 100 µM (inactive) | 15.1 µM (inactive) | > 100 µM (inactive)
CC(=O)OCC1OC(n2c3c(cc(C#N)c2=S)CCC3)C(OC(C)=O)C(OC(C)=O)C1OC(C)=O (configuration not stated) | > 100 µM (inactive) | > 100 µM (inactive) | > 100 µM (inactive) | > 100 µM (inactive) | > 100 µM (inactive) | > 100 µM (inactive) | > 100 µM (inactive) | 68.1 µM (inactive) | > 100 µM (inactive) | > 100 µM (inactive) | > 100 µM (inactive) | – | > 100 µM (inactive) | – | – | > 100 µM (inactive) | > 100 µM (inactive)
Cc1ccc([N+](=O)[O-])cc1NC1=NCCO1 | > 100 µM (inactive) | > 100 µM (inactive) | – | > 100 µM (inactive) | > 100 µM (inactive) | > 100 µM (inactive) | > 100 µM (inactive) | > 100 µM (inactive) | > 100 µM (inactive) | > 100 µM (inactive) | > 100 µM (inactive) | > 100 µM (inactive) | > 100 µM (inactive) | > 100 µM (inactive) | > 100 µM (inactive) | > 100 µM (inactive) | > 100 µM (inactive)
CC(=O)N(CCc1ccccc1)C(C)(C#N)c1ccccc1 (configuration not stated) | > 100 µM (inactive) | > 100 µM (inactive) | > 100 µM (inactive) | > 100 µM (inactive) | > 100 µM (inactive) | > 100 µM (inactive) | > 100 µM (inactive) | > 100 µM (inactive) | > 100 µM (inactive) | > 100 µM (inactive) | > 100 µM (inactive) | > 100 µM (inactive) | > 100 µM (inactive) | > 100 µM (inactive) | > 100 µM (inactive) | > 100 µM (inactive) | –
Cc1sccc1C(=S)Nc1ccc(Cl)c(/C=N/OC(C)(C)C)c1 | 19.1 µM (inactive) | 21.3 µM (inactive) | 13.9 µM (inactive) | 12 µM (inactive) | 37.9 µM (inactive) | 16.7 µM (inactive) | 22.3 µM (inactive) | 21.1 µM (inactive) | 14.1 µM (inactive) | 7.31 µM (inactive) | 16.6 µM (inactive) | 13.9 µM (inactive) | 13.5 µM (inactive) | 21.9 µM (inactive) | 15.8 µM (inactive) | 13.3 µM (inactive) | –
C=CCOC(=O)Cn1cnc2c(N)ncnc21 | > 100 µM (inactive) | > 100 µM (inactive) | – | > 100 µM (inactive) | > 100 µM (inactive) | > 100 µM (inactive) | > 100 µM (inactive) | > 100 µM (inactive) | > 100 µM (inactive) | > 100 µM (inactive) | > 100 µM (inactive) | – | > 100 µM (inactive) | > 100 µM (inactive) | > 100 µM (inactive) | > 100 µM (inactive) | > 100 µM (inactive)
CCOC(=O)C1=C(C)NC(c2ccccc2)=C(C(=O)OCc2ccccc2)C1C#Cc1ccccc1 (configuration not stated) | > 100 µM (inactive) | > 100 µM (inactive) | – | 0.0675 µM (active) | > 100 µM (inactive) | > 100 µM (inactive) | > 100 µM (inactive) | > 100 µM (inactive) | > 100 µM (inactive) | > 100 µM (inactive) | > 100 µM (inactive) | > 100 µM (inactive) | 79.8 µM (inactive) | > 100 µM (inactive) | > 100 µM (inactive) | – | –
O=C(NCc1cccs1)OC1CC2CCC1C2 (configuration not stated) | > 100 µM (inactive) | > 100 µM (inactive) | > 100 µM (inactive) | > 100 µM (inactive) | > 100 µM (inactive) | > 100 µM (inactive) | 81.5 µM (inactive) | – | > 100 µM (inactive) | > 100 µM (inactive) | > 100 µM (inactive) | > 100 µM (inactive) | > 100 µM (inactive) | > 100 µM (inactive) | > 100 µM (inactive) | > 100 µM (inactive) | > 100 µM (inactive)
NC1CSc2ccccc2NC1=O (configuration not stated) | > 100 µM (inactive) | > 100 µM (inactive) | – | > 100 µM (inactive) | > 100 µM (inactive) | > 100 µM (inactive) | > 100 µM (inactive) | > 100 µM (inactive) | > 100 µM (inactive) | > 100 µM (inactive) | > 100 µM (inactive) | > 100 µM (inactive) | > 100 µM (inactive) | > 100 µM (inactive) | > 100 µM (inactive) | > 100 µM (inactive) | > 100 µM (inactive)
CC12CCC(=O)[C@@]1(C)CCCC2=O (some centres not stated) | > 100 µM (inactive) | > 100 µM (inactive) | – | > 100 µM (inactive) | > 100 µM (inactive) | > 100 µM (inactive) | > 100 µM (inactive) | > 10 µM (inactive) | > 100 µM (inactive) | – | > 100 µM (inactive) | – | > 100 µM (inactive) | > 100 µM (inactive) | > 100 µM (inactive) | > 100 µM (inactive) | > 100 µM (inactive)

Source: ChEMBL document CHEMBL1201862, “PubChem BioAssay data set” (2004)
